Legend:
CYP3A4 = test: Contribution of CYP3A4 to hepatocyte clearance (ketoconazole inhibitory effect); format: in vitro ADME, human; settings: for Effect of ketoconazole on metabolism in hepatocytes: 5 μmol/L drug; for fm CYP3A4, Mean ± SD: mean of hepatocyte preparations
Experimental: Experiments were performed in 48-well plastic plates coated with rat tail Collagen type I. Plates were seeded with 0.16 × 10^5 hepatocytes per well in a final volume of 0.2 mL and incubated at 37°C under a 95% humidified air and 5% CO2 atmosphere. After 3 h during which cells were allowed to attach, the medium was renewed with 0.1 mL serum-free medium. Then, the investigated drug or metabolic probe(s) were added directly to the incubation medium in the absence or the presence of inhibitors such as either ketoconazole as a specific and potent CYP3A inhibitor (3 μmol/L final concentration), clorgyline (0.25 μmol/L final concentration) as a potent MAO-A inhibitor or ABT as a potent but nonselective CYP isoforms inhibitor (1 mmol/L final concentration) (Fabre et al. [1988]; Bourrié et al. [1996]; Klieber et al. [2008]). Regardless of the final concentration investigated, the final solvent (DMSO) concentration never exceeded 0.2% (v/v).
To determine the metabolism of the different compounds (metabolic probes, dronedarone, N-debutyl-dronedarone, propanoic acid-dronedarone, phenol-dronedarone, and C-dealkyl-dronedarone), kinetic studies were performed over 0–24 h. For each time point, 0.1 mL of acetonitrile was added to the specific well for protein precipitation, and both extracellular medium and the cell fraction were scraped together. Cell extracts were transferred to a glass tube and stored at −20°C until analysis. Before analysis, cell homogenates were sonicated for a few seconds, homogenized and centrifuged at 6000 g for 10 min. Supernatant fluids were then analyzed for the different drugs and their specific metabolites.
The fraction metabolized (fm) by MAO, CYP3A or total CYPs was determined using the following equation: [drawing 3] where: kei is the elimination rate constant (expressed in h^−1) in the presence of the inhibitor.
The kinetics of drug disappearance were investigated using four different cryopreserved human hepatocyte preparations in primary cultures following incubation with either dronedarone or its metabolites at a concentration of 5 μmol/L. Incubations were performed either in the absence, that is control conditions, or in the presence of enzyme system inhibitors such as 3 μmol/L ketoconazole (specific and potent inhibitor of CYP3A4/5), 1 mmol/L ABT (a potent and […] inhibitor of total CYPs), or 0.25 μmol/L clorgyline (a potent MAO-A inhibitor) (Dorris [1982]). Kinetic studies were performed over 24 h.

[1] = system: CYP1A1, -1A2, -2A6, -2B6, -C8, -2C9, -2C18, -2C19, -2D6, -2E1, -3A4, and -3A5; test: Oxidation by the panel of recombinant human CYP isoforms; format: in vitro ADME; settings: 100 pmol/mL, 5 μmol/L, 30 min, NADPH; for Oxidation by the other CYP isoforms of the panel: isoforms other than those named for the drug
Excerpt: Recombinant human CYPs (Supersomes™; BD Gentes, Woburn, MA: CYP1A1, CYP1A2, CYP2A6, CYP2B6, CYP2C8, CYP2C9, CYP2C18, CYP2C19, CYP2D6, CYP2E1, CYP3A4 and CYP3A5), FMOs (Supersomes™: FMO1, FMO3, FMO5), MAOs (Supersomes™: MAO-A and MAO-B), and UGTs (Supersomes™: UGT1A1, UGT1A3, UGT1A4, UGT1A6, UGT1A7, UGT1A8, UGT1A9, UGT1A10, UGT2B4, UGT2B7, UGT2B15, and UGT2B17) expressed in baculovirus-infected insect cells and control microsomes from insect cells infected with wild-type baculovirus were all obtained from BD Gentest (Woburn, MA).
For oxidative pathways, the assay mixture was composed of human liver microsomes (1 mg·m·L^−1) or microsomes of baculovirus-infected cells expressing human enzymes (100 pmol·mL^−1 for CYPs and 1 mg·mL^−1 for FMOs and MAOs), nicotinamide adenine dinucleotide phosphate reduced form (NADPH) (1 mmol/L), 100 mmol/L potassium phosphate (pH 7.4), and 5 μmol/L of the investigated compound dissolved in DMSO in a final volume of 500 μL.
The final concentration of DMSO in the reaction mixture was less than 1% (v/v). Initial rate conditions with respect to time and protein concentration for both the disappearance of unchanged drug and the formation of respective metabolites were established in preliminary studies. The enzyme reaction was initiated by addition of NADPH (10 mmol/L aqueous solution) to achieve a final concentration of 1 mmol/L for oxidative CYP- and FMO-dependent reactions or by the drug for MAO-dependent reactions, incubated at 37°C and stopped after 0–30 min by addition of one volume of ice-cold acetonitrile.
In human liver microsomes and recombinant isoforms, the percentage of metabolism was determined on the basis of unchanged drug disappearance, using the following equation [drawing 1] where UDt = 30 min represents the unchanged drug peak area after a 30-min incubation period and UDt = 0, the unchanged drug peak area at t = 0.
To identify the specific isoforms that are capable of oxidizing dronedarone and its metabolites, assays were performed using c-DNA-expressed isoforms belonging to CYP- (CYP1A1, -1A2, -2A6, -2B6, -C8, -2C9, -2C18, -2C19, -2D6, -2E1, -3A4, and -3A5), FMO- (FMO-1, -3, and -5) and MAO- (MAO-A and MAO-B) families.
Figure 5 Contribution of individual CYPs, FMOs and MAOs to the oxidation of dronedarone and its metabolites. Individual CYPs (100 pmol/mL), FMOs (1 mg/mL) and MAOs (1 mg/mL) were incubated with either dronedarone (A) or its metabolites, N-debutyl-dronedarone (B), propanoic acid-dronedarone (C), and phenol-dronedarone (D), at a concentration of 5 μmol/L, for 30 min at 37°C in the presence of NADPH, except for MAOs where incubations were performed in the absence of cofactor. Unchanged drugs were quantified by LC/MS-MS relative to the synthetic references as described in Materials and Methods. Data are expressed as the percentage of oxidation.

| Effect of ketoconazole on metabolism in hepatocytes (CYP3A4; 3 μmol/L ketoconazole) | Metabolism by any of the different CYPs [1] | fm CYP3A4 (CYP3A4; BD-91, 3 μmol/L ketoconazole) [%] | fm CYP3A4 (CYP3A4; BD-296, 3 μmol/L ketoconazole) [%] | fm CYP3A4 (CYP3A4; HU-1358, 3 μmol/L ketoconazole) [%] | fm CYP3A4 (CYP3A4; IVT-IBG, 3 μmol/L ketoconazole) [%] | fm CYP3A4, Mean ± SD (CYP3A4; 3 μmol/L ketoconazole) [%] | SMILES | Oxidation by the other CYP isoforms of the panel [1] |
| --- | --- | --- | --- | --- | --- | --- | --- | --- |
| very minor inhibitory effect | – | 36 | 41 | 33 | 34 | 36 ± 3 | CCCCc1oc2ccc(NS(C)(=O)=O)cc2c1C(=O)c1ccc(OCCC(=O)O)cc1 [Propanoic acid-dronedarone] | Neither other CYPs, nor FMOs and MAOs metabolized propanoic acid-dronedarone to any significant extent |
| did not contribute | – | – | – | – | – | – | CCCCc1oc2ccc(NS(C)(=O)=O)cc2c1C(=O)c1ccc(O)cc1 [Phenol-dronedarone] | contributed to a very small extent |

Further lines, the compound ahead of its results:

| SMILES | Effect of ketoconazole on metabolism in hepatocytes (CYP3A4; 3 μmol/L ketoconazole) | Metabolism by any of the different CYPs [1] | fm CYP3A4 (CYP3A4; BD-91, 3 μmol/L ketoconazole) [%] | fm CYP3A4 (CYP3A4; BD-296, 3 μmol/L ketoconazole) [%] | fm CYP3A4 (CYP3A4; HU-1358, 3 μmol/L ketoconazole) [%] | fm CYP3A4 (CYP3A4; IVT-IBG, 3 μmol/L ketoconazole) [%] | fm CYP3A4, Mean ± SD (CYP3A4; 3 μmol/L ketoconazole) [%] | Oxidation by the other CYP isoforms of the panel [1] |
| --- | --- | --- | --- | --- | --- | --- | --- | --- |
| CCCCN(CCCC)CCCOc1ccc(C(=O)O)cc1 [C-dealkyl-dronedarone] | no effect | not metabolized | – | – | – | – | – | – |
| CCCCNCCCOc1ccc(C(=O)c2c(CCCC)oc3ccc(NS(C)(=O)=O)cc23)cc1 [N-debutyl-dronedarone] | no inhibitory effect | – | 7 | 4 | 8 | 0 | 5 ± 3 | Neither other CYPs nor FMOs metabolized N-debutyl-dronedarone to any significant extent |
| CCCCc1oc2ccc(NS(C)(=O)=O)cc2c1C(=O)c1ccc(OCCCN(CCCC)CCCC)cc1.Cl [Dronedarone, N-(2-Butyl-3-(4-(3-(dibutylamino)propoxy)benzoyl)-5-benzofuranyl)methanesulfonamide, hydrochloride] | predominant inhibitory effect | – | 95 | 95 | 84 | 80 | 89 ± 7 | less than 15% |

Reference: publication PMC4186413, “Identification of metabolic pathways and enzyme systems involved in the in vitro human hepatic metabolism of dronedarone, a potent new oral antiarrhythmic drug” (Pharmacology Research & Perspectives, 2014)
